Data from the NIST ThermoML archive (doi:10.1021/je2003012).
Numbers after ± are expanded uncertainties.

Experiment: relative permittivity at various frequencies (dimensionless); wn = mass fraction of the nth substance listed
Conditions: Liquid, direct capacitance:P =

SMILES: O=C=O [carbon dioxide] + CCO
- relative permittivity (303.4 K, 10000 kPa, w2 = 0.05): 1.83 ± 0.14
- relative permittivity (303.4 K, 11400 kPa, w2 = 0.05): 1.86 ± 0.14
- relative permittivity (303.4 K, 13200 kPa, w2 = 0.05): 1.89 ± 0.14
- relative permittivity (303.4 K, 13600 kPa, w2 = 0.05): 1.9 ± 0.14
- relative permittivity (303.4 K, 14800 kPa, w2 = 0.05): 1.91 ± 0.14
- relative permittivity (303.4 K, 15300 kPa, w2 = 0.05): 1.92 ± 0.14
- relative permittivity (303.4 K, 15800 kPa, w2 = 0.05): 1.92 ± 0.14
- relative permittivity (303.4 K, 16000 kPa, w2 = 0.05): 1.93 ± 0.14
- relative permittivity (303.4 K, 17500 kPa, w2 = 0.05): 1.94 ± 0.14
- relative permittivity (303.4 K, 19000 kPa, w2 = 0.05): 1.95 ± 0.14
- relative permittivity (303.4 K, 19200 kPa, w2 = 0.05): 1.95 ± 0.14
- relative permittivity (303.4 K, 21000 kPa, w2 = 0.05): 1.97 ± 0.14
- relative permittivity (303.4 K, 21300 kPa, w2 = 0.05): 1.97 ± 0.14
- relative permittivity (303.4 K, 23000 kPa, w2 = 0.05): 1.98 ± 0.14
- relative permittivity (303.4 K, 23300 kPa, w2 = 0.05): 1.99 ± 0.14
- relative permittivity (303.4 K, 25100 kPa, w2 = 0.05): 2 ± 0.14
- relative permittivity (303.4 K, 25400 kPa, w2 = 0.05): 2 ± 0.14
- relative permittivity (303.4 K, 26700 kPa, w2 = 0.05): 2.01 ± 0.14
- relative permittivity (303.4 K, 27200 kPa, w2 = 0.05): 2.01 ± 0.14
- relative permittivity (303.4 K, 28900 kPa, w2 = 0.05): 2.02 ± 0.14
- relative permittivity (303.4 K, 29600 kPa, w2 = 0.05): 2.03 ± 0.14
- relative permittivity (303.7 K, 7200 kPa, w2 = 0.212): 3.15 ± 0.15
- relative permittivity (303.7 K, 7900 kPa, w2 = 0.212): 3.18 ± 0.15
- relative permittivity (303.7 K, 8800 kPa, w2 = 0.212): 3.22 ± 0.15
- relative permittivity (303.7 K, 9800 kPa, w2 = 0.1): 2.24 ± 0.14
- relative permittivity (303.7 K, 9800 kPa, w2 = 0.212): 3.25 ± 0.15
- relative permittivity (303.7 K, 11000 kPa, w2 = 0.212): 3.29 ± 0.15
- relative permittivity (303.7 K, 11300 kPa, w2 = 0.1): 2.27 ± 0.14
- relative permittivity (303.7 K, 11400 kPa, w2 = 0.1): 2.28 ± 0.14
- relative permittivity (303.7 K, 13000 kPa, w2 = 0.212): 3.35 ± 0.15
- relative permittivity (303.7 K, 13100 kPa, w2 = 0.1): 2.3 ± 0.14
- relative permittivity (303.7 K, 14000 kPa, w2 = 0.1): 2.32 ± 0.14
- relative permittivity (303.7 K, 14900 kPa, w2 = 0.1): 2.34 ± 0.14
- relative permittivity (303.7 K, 14900 kPa, w2 = 0.212): 3.4 ± 0.15
- relative permittivity (303.7 K, 15000 kPa, w2 = 0.212): 3.4 ± 0.15
- relative permittivity (303.7 K, 16000 kPa, w2 = 0.1): 2.36 ± 0.14
- relative permittivity (303.7 K, 16500 kPa, w2 = 0.212): 3.44 ± 0.15
- relative permittivity (303.7 K, 16700 kPa, w2 = 0.212): 3.45 ± 0.15
- relative permittivity (303.7 K, 16900 kPa, w2 = 0.1): 2.37 ± 0.14
- relative permittivity (303.7 K, 17300 kPa, w2 = 0.212): 3.46 ± 0.15
- relative permittivity (303.7 K, 17800 kPa, w2 = 0.1): 2.38 ± 0.14
- relative permittivity (303.7 K, 18000 kPa, w2 = 0.212): 3.47 ± 0.15
- relative permittivity (303.7 K, 18800 kPa, w2 = 0.212): 3.49 ± 0.15
- relative permittivity (303.7 K, 19100 kPa, w2 = 0.1): 2.4 ± 0.14
- relative permittivity (303.7 K, 19900 kPa, w2 = 0.1): 2.41 ± 0.14
- relative permittivity (303.7 K, 20200 kPa, w2 = 0.212): 3.52 ± 0.15
- relative permittivity (303.7 K, 20400 kPa, w2 = 0.1): 2.42 ± 0.14
- relative permittivity (303.7 K, 21400 kPa, w2 = 0.1): 2.43 ± 0.14
- relative permittivity (303.7 K, 21600 kPa, w2 = 0.212): 3.54 ± 0.14
- relative permittivity (303.7 K, 21800 kPa, w2 = 0.212): 3.55 ± 0.14
- relative permittivity (303.7 K, 21900 kPa, w2 = 0.1): 2.43 ± 0.14
- relative permittivity (303.7 K, 23100 kPa, w2 = 0.1): 2.45 ± 0.14
- relative permittivity (303.7 K, 23300 kPa, w2 = 0.212): 3.57 ± 0.14
- relative permittivity (303.7 K, 23900 kPa, w2 = 0.212): 3.58 ± 0.14
- relative permittivity (303.7 K, 24100 kPa, w2 = 0.1): 2.46 ± 0.14
- relative permittivity (303.7 K, 24200 kPa, w2 = 0.1): 2.46 ± 0.14
- relative permittivity (303.7 K, 25300 kPa, w2 = 0.1): 2.47 ± 0.14
- relative permittivity (303.7 K, 25400 kPa, w2 = 0.212): 3.61 ± 0.14
- relative permittivity (303.7 K, 25500 kPa, w2 = 0.1): 2.48 ± 0.14
- relative permittivity (303.7 K, 26200 kPa, w2 = 0.212): 3.62 ± 0.14
- relative permittivity (303.7 K, 26500 kPa, w2 = 0.1): 2.48 ± 0.14
- relative permittivity (303.7 K, 27200 kPa, w2 = 0.212): 3.64 ± 0.14
- relative permittivity (303.7 K, 27400 kPa, w2 = 0.1): 2.49 ± 0.14
- relative permittivity (303.7 K, 28000 kPa, w2 = 0.1): 2.5 ± 0.14
- relative permittivity (303.7 K, 28400 kPa, w2 = 0.1): 2.5 ± 0.14
- relative permittivity (303.7 K, 28400 kPa, w2 = 0.212): 3.66 ± 0.14
- relative permittivity (303.7 K, 29400 kPa, w2 = 0.1): 2.51 ± 0.14
- relative permittivity (303.7 K, 30200 kPa, w2 = 0.212): 3.68 ± 0.14
- relative permittivity (304.9 K, 16100 kPa, w2 = 0.152): 2.67 ± 0.15
- relative permittivity (304.9 K, 16800 kPa, w2 = 0.152): 2.68 ± 0.14
- relative permittivity (304.9 K, 17300 kPa, w2 = 0.152): 2.68 ± 0.15
- relative permittivity (304.9 K, 17800 kPa, w2 = 0.152): 2.69 ± 0.14
- relative permittivity (304.9 K, 18800 kPa, w2 = 0.152): 2.7 ± 0.14
- relative permittivity (304.9 K, 19400 kPa, w2 = 0.152): 2.72 ± 0.14
- relative permittivity (304.9 K, 20100 kPa, w2 = 0.152): 2.73 ± 0.14
- relative permittivity (304.9 K, 20800 kPa, w2 = 0.152): 2.74 ± 0.14
- relative permittivity (304.9 K, 21900 kPa, w2 = 0.152): 2.75 ± 0.14
- relative permittivity (304.9 K, 22800 kPa, w2 = 0.152): 2.76 ± 0.14
- relative permittivity (304.9 K, 23700 kPa, w2 = 0.152): 2.77 ± 0.15
- relative permittivity (304.9 K, 24300 kPa, w2 = 0.152): 2.79 ± 0.14
- relative permittivity (304.9 K, 24700 kPa, w2 = 0.152): 2.78 ± 0.14
- relative permittivity (304.9 K, 25500 kPa, w2 = 0.152): 2.79 ± 0.14
- relative permittivity (304.9 K, 26400 kPa, w2 = 0.152): 2.81 ± 0.14
- relative permittivity (304.9 K, 26500 kPa, w2 = 0.152): 2.81 ± 0.14
- relative permittivity (304.9 K, 27200 kPa, w2 = 0.152): 2.82 ± 0.14
- relative permittivity (304.9 K, 28200 kPa, w2 = 0.152): 2.83 ± 0.14
- relative permittivity (304.9 K, 29100 kPa, w2 = 0.152): 2.84 ± 0.14
